The values that follow come from ChEMBL document CHEMBL1921773, “Carbamates of 4'-demethyl-4-deoxypodophyllotoxin: synthesis, cytotoxicity and cell cycle effects” (Bioorg Med Chem Lett, 2011).

The test system of one data set is HL-60. The data set can be described thus: Cytotoxicity against human HL60 cells assessed as growth inhibition after 48 hrs by CCK-8 assay. The format is functional, cell-based. Conditions: HL-60, 48 h.
A further data set deals with HeLa. The data set can be described thus: Cytotoxicity against human HeLa cells assessed as growth inhibition after 48 hrs by CCK-8 assay. Type of data set: functional, cell-based. In general terms: Formazan colour is commonly taken as a measure of viable cells.
The subject of the next data set is SiHa. The data set can be described thus: Cytotoxicity against human SiHa cells assessed as growth inhibition after 48 hrs by MTT assay. The format is functional, cell-based.
The subject of data set [1] is A549. Nature of the data set: Cytotoxicity against human A549 cells assessed as growth inhibition after 48 hrs by MTT assay. Conditions: A549, 48 h. The format is functional, cell-based.
Data set [2] in a line: Octanol-water partition coefficient, log P of the compound. Type of data set: physicochemical.
Data set [3] has as its system A549. Nature of the data set: Cell cycle arrest in human A549 cells assessed as accumulation of cells at G2/M phase at 0.4 uM after 12 hrs by propidium iodide staining-based flow cytometry (reference value: 3.2%). The format is functional. A general note: A flow cytometer gives signals particle by particle.
Data set [4] deals with A549. The data set can be described thus: Cell cycle arrest in human A549 cells assessed as accumulation of cells at G1 phase at 0.4 uM after 24 hrs by propidium iodide staining-based flow cytometry (reference value: 59.9%). Type of data set: functional.
In data set [5] the test system is A549. The data set can be described thus: Cell cycle arrest in human A549 cells assessed as accumulation of cells at S phase at 0.4 uM after 24 hrs by propidium iodide staining-based flow cytometry (reference value: 36.7%). The format is functional.
In data set [6] the test system is A549. Nature of the data set: Cell cycle arrest in human A549 cells assessed as accumulation of cells at G2/M phase at 0.4 uM by propidium iodide staining-based flow cytometry (reference value: 3.2%). The format is functional. Conditions: TDE = time-dependent effect.
For data set [7], the system named is A549. The data set can be described thus: Cell cycle arrest in human A549 cells assessed as accumulation of cells at G2/M phase at 0.4 uM after 24 hrs by propidium iodide staining-based flow cytometry (reference value: 3.2%). The format is functional.
In data set [8] the test system is A549. Nature of the data set: Cell cycle arrest in human A549 cells assessed as accumulation of cells at G1 phase at 0.4 uM after 12 hrs by propidium iodide staining-based flow cytometry (reference value: 59.9%). Type of data set: functional.
The test system of data set [9] is A549. The data set can be described thus: Cell cycle arrest in human A549 cells assessed as accumulation of cells at S phase at 0.4 uM after 12 hrs by propidium iodide staining-based flow cytometry (reference value: 36.7%). The format is functional.

By IC50 is commonly meant the concentration at which inhibition is half-maximal. One may read the logP as the decadic logarithm of the partition coefficient of the neutral form, usually between octanol and water. A low value points to a more hydrophilic compound. Regarding `COc1cc([C@@H]2c3cc4c(cc3C[C@H]3COC(=O)[C@@H]32)OCO4)cc(OC)c1OC(=O)N[C@H](Cc1ccccc1)C(N)=O`, the half-inhibitory concentration (IC50) with HL-60 came out at 231 nM; in the data set on HeLa, 575 nM; in the data set on SiHa, 416 nM; with A549 [1] it was 1610 nM. Also, the lipophilicity (logP) in data set [2] turned out to be 1.33.

As for `COc1cc([C@@H]2c3cc4c(cc3C[C@H]3COC(=O)[C@@H]32)OCO4)cc(OC)c1OC(=O)N[C@H](CCSC)C(N)=O`, the IC50 in the data set with HL-60 was 89.3 nM; with HeLa, 528 nM; in the data set with SiHa, 614 nM; in the data set with A549 [1] it was 887 nM. Further, the Activity is 27.7% in the data set on A549 [3]; 11.2% with A549 [4]; 30.7% in the data set on A549 [5]; “tde” in the data set with A549 [6]; 58.1% with A549 [7]; 22.6% in the data set on A549 [8]. For the same compound, the Activity in the data set with A549 [9] amounted to 49.7%. The logP in data set [2] came to 0.26.

Turning to `COc1cc([C@@H]2c3cc4c(cc3C[C@H]3COC(=O)[C@@H]32)OCO4)cc(OC)c1OC(=O)N[C@@H](Cc1ccccc1)C(N)=O`, the IC50 came out at 940 nM in the data set with HL-60, 1720 nM in the data set with HeLa, 1070 nM in the data set with SiHa and 3410 nM with A549 [1]. For the same compound, the logP in data set [2] is 1.35.

In the case of `COc1cc([C@@H]2c3cc4c(cc3C[C@H]3COC(=O)[C@@H]32)OCO4)cc(OC)c1OC(=O)N[C@@H](CCSC)C(N)=O`, the IC50 in the data set with HL-60 is 711 nM; in the data set with HeLa it was 2030 nM; in the data set on SiHa it was 4320 nM; with A549 [1] it was 860 nM. This compound returned a logP in [2] of 0.28.

As for `COc1cc([C@@H]2c3cc4c(cc3C[C@H]3COC(=O)[C@@H]32)OCO4)cc(OC)c1OC(=O)N[C@@H](CC(C)C)C(N)=O`, the IC50 with HL-60 came out at 670 nM; in the data set with HeLa, 703 nM; in the data set on SiHa, 877 nM; in the data set on A549 [1], 9930 nM. Further, in data set [2], the logP was 1.26.

Consider `COc1cc([C@@H]2c3cc4c(cc3C[C@H]3COC(=O)[C@@H]32)OCO4)cc(OC)c1OC(=O)N[C@@H](C)C(N)=O`, for which the IC50 was determined as 397 nM in the data set with HL-60, 743 nM in the data set with HeLa, 696 nM with SiHa and 4230 nM with A549 [1]. The same compound registered a lipophilicity (logP) in data set [2] of -0.09.

As for `CC[C@H](C)[C@H](NC(=O)Oc1c(OC)cc([C@@H]2c3cc4c(cc3C[C@H]3COC(=O)[C@@H]32)OCO4)cc1OC)C(N)=O`, the IC50 in the data set on HL-60 was found to be 1020 nM; in the data set with HeLa it was 5280 nM; in the data set on SiHa it was 3700 nM; in the data set on A549 [1], 1770 nM. In data set [2], this compound had a logP of 1.36.

`COc1cc([C@@H]2c3cc4c(cc3C[C@H]3COC(=O)[C@@H]32)OCO4)cc(OC)c1OC(=O)N[C@H](C(=O)NC1CC1)C(C)C`: the 50% inhibitory concentration (IC50) in the data set on HL-60 amounted to 213 nM; in the data set with HeLa it was 433 nM; with SiHa, 432 nM; in the data set with A549 [1], 2310 nM. In addition, the logP in data set [2] is 1.45.

Regarding `COc1cc([C@@H]2c3cc4c(cc3C[C@H]3COC(=O)[C@@H]32)OCO4)cc(OC)c1OC(=O)N[C@H](C(=O)NC1CCCC1)C(C)C`, the IC50 turned out to be 1030 nM with HL-60, 20300 nM in the data set with HeLa, 14600 nM with SiHa and 1910 nM with A549 [1]. Moreover, in data set [2], the logP was determined as 2.57.

For `COc1cc([C@@H]2c3cc4c(cc3C[C@H]3COC(=O)[C@@H]32)OCO4)cc(OC)c1O` [4'-DEMETHYLDEOXYPODOPHYLLOTOXIN], the IC50 with HL-60 worked out at 2960 nM; with HeLa, 43000 nM; with SiHa it was 53300 nM; with A549 [1], 1800 nM. In data set [2], this compound registered a logP of 2.92.

Turning to `COc1cc([C@@H]2c3cc4c(cc3C[C@H]3COC(=O)[C@@H]32)OCO4)cc(OC)c1OC(=O)N[C@@H](Cc1ccccc1)C(=O)NC1CC1`, the IC50 in the data set on HL-60 came to 416 nM; with HeLa, 693 nM; with SiHa it was 1120 nM; in the data set on A549 [1] it was 3370 nM. For the same compound, the lipophilicity (logP) in data set [2] came out at 1.95.

With `COc1cc([C@@H]2c3cc4c(cc3[C@@H](O[C@@H]3O[C@@H]5CO[C@@H](C)O[C@H]5[C@H](O)[C@H]3O)[C@H]3COC(=O)[C@H]23)OCO4)cc(OC)c1O` [ETOPOSIDE], the IC50 was determined as 2850 nM in the data set with HL-60, 2760 nM in the data set with HeLa, 40400 nM in the data set with SiHa and 24900 nM with A549 [1]. The compound further yielded a log partition coefficient (logP) in data set [2] of 0.69.

In the case of `COc1cc([C@@H]2c3cc4c(cc3C[C@H]3COC(=O)[C@@H]32)OCO4)cc(OC)c1OC(=O)N[C@@H](Cc1ccccc1)C(=O)NC1CCCC1`, the IC50 in the data set on HL-60 is 988 nM; in the data set with HeLa, 3070 nM; in the data set on SiHa, 6870 nM; in the data set with A549 [1], 2690 nM. The logP in data set [2] amounted to 2.06.

Consider `COc1cc([C@@H]2c3cc4c(cc3C[C@H]3COC(=O)[C@@H]32)OCO4)cc(OC)c1OC(=O)N[C@H](C(N)=O)C(C)C`, for which the IC50 in the data set on HL-60 turned out to be 1030 nM; with HeLa, 3830 nM; in the data set with SiHa it was 2890 nM; in the data set on A549 [1], 1490 nM. Moreover, the logP in [2] came out at 0.84.

Turning to `COc1cc([C@@H]2c3cc4c(cc3C[C@H]3COC(=O)[C@@H]32)OCO4)cc(OC)c1OC` [DESOXYPODOPHYLLOTOXIN], the IC50 with HL-60 worked out at 470 nM; in the data set with HeLa it was 1980 nM; with SiHa it was 6010 nM; with A549 [1], 1380 nM. The compound also had a lipophilicity (logP) in data set [2] of 3.16.
